Experimental data from patent US10233186B2, “Inhibitors of activin receptor-like kinase” (BLUEPRINT MEDICINES CORPORATION, priority 2016, dated 2019).

Columns and labels:
[1] = target: T1, ALK2 R206H (GST-tagged mutant ALK2) (Homo sapiens, UniProt Q04771, R206H); assay: ALK binding assay (LANTHASCREEN TR-FRET competitive binding, displacement of Kinase Tracer 178); details: ALK2 R206H, LANTHASCREEN TR-FRET competitive binding; read-out: Binding Assay (IC50)
T1 construct: purchased Carna Bioscience or ThermoFisher 09-148 or PV6232
T1 sequence (Q04771 21-509 R206H): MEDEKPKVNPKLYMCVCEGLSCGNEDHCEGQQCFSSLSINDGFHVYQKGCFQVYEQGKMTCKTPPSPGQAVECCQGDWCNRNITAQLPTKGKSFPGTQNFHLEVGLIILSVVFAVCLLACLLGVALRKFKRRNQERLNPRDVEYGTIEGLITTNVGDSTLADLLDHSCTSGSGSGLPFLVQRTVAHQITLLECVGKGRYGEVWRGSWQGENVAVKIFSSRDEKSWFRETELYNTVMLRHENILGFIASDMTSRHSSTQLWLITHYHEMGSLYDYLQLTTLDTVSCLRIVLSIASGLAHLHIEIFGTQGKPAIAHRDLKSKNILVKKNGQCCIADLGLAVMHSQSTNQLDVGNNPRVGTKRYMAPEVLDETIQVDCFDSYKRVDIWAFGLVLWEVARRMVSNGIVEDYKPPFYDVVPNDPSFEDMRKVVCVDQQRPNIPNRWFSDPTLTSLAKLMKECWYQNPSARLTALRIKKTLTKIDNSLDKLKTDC

[2] = target: T2, human ALK2 R206H (Homo sapiens, UniProt Q04771, R206H); assay: Cell-based ALK2-R206H cell activity assay (Smad1-Ser463/Ser465 phosphorylation by AlphaLISA in HEK293-ALK2-R206H cells); details: read-out: Cell Line (Cell Assay IC50)
T2 construct: expressed in transfected cells; host or cells: HEK293 (ATCC CRL1573), lentivirus transduction, blasticidin selection
T2 sequence (Q04771 21-509 R206H): T1 sequence (Q04771 21-509 R206H)
Outline: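 Stable HEK293 cells expressing C-terminally FLAG-tagged human ALK2 R206H (lentiviral, blasticidin-selected) were treated with compounds in 10-point, 3-fold dilutions from 10 μM or 1 μM top, in duplicate. Smad1 Ser463/Ser465 phosphorylation was read by AlphaLISA.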

| Compound | IC50 [1] [nM] | IC50 [2] [nM] |
| --- | --- | --- |
| CC(C)N1CC(O)(c2ccc(-c3cc4c(N5CCN(C(=O)C6CC(C#N)C6)CC5)ccnn4c3)cc2)C1 (centres unmarked) [Compound 616] | < 10 | < 100 |
| CC(C)N1CCC[C@@H](c2ccc(-c3cc4c(N5CCN(C(=O)NCCC#N)CC5)ccnn4c3)cc2)C1 [Compound 617] | < 10 | 100 to 500 |
| CC(C)N1CCC[C@H](c2ccc(-c3cc4c(N5CCN(C(=O)NCCC#N)CC5)ccnn4c3)cc2)C1 [Compound 618] | < 10 | < 100 |
| CC(C)N1CCN(C)[C@](C)(c2ccc(-c3cc4c(N5CCN(C(=O)C6CC6)CC5)ccnn4c3)cc2)C1 [Compound 619] | < 10 | < 100 |
| CC(C)N1CCN(C)[C@@](C)(c2ccc(-c3cc4c(N5CCN(C(=O)C6CC6)CC5)ccnn4c3)cc2)C1 [Compound 620] | < 10 | < 100 |
| CC(C)N1CCC(c2ccc(-c3cc4c(N5CCN(C(=O)OC6CCC6)CC5)ccnn4c3)cc2)CC1 [Compound 621] | < 10 | 100 to 500 |
| COC(=O)NC1(c2ccc(-c3cc4c(N5CCN(C(=O)C6CC6)CC5)ccnn4c3)cc2)CCNCC1 [Compound 622] | < 10 | > 500 |
| CC(C)N1CC2(CN(c3ccc(-c4cc5c(N6CCN(C(=O)[C@H]7C[C@@H]7F)CC6)ccnn5c4)cc3)C2)C1 [Compound 623] | < 10 | 100 to 500 |
| COC1(c2ccc(-c3cc4c(N5CCN(C(=O)C6CC6)CC5)ccnn4c3)nc2)CCN(C(C)C)CC1 [Compound 624] | < 10 | < 100 |
| CO[C@@]1(c2ccc(-c3cc4c(N5CCN(C(=O)C6CC6)CC5)ccnn4c3)nc2)CCCN(C(C)C)C1 [Compound 625] | < 10 | < 100 |
| CO[C@]1(c2ccc(-c3cc4c(N5CCN(C(=O)C6CC6)CC5)ccnn4c3)nc2)CCCN(C(C)C)C1 [Compound 626] | < 10 | < 100 |
| CC(C)N1CCC(c2ccc(-c3cc4c(N5CCN(C(=O)NC6COC6)CC5)ccnn4c3)cc2)CC1 [Compound 627] | < 10 | < 100 |
| CC(C)NC(=O)N1CCN(c2ccnn3cc(-c4ccc(C5(C)CCN(C(C)C)CC5)cc4)cc23)CC1 [Compound 628] | < 10 | < 100 |
| CC(C)N1CCC(c2ccc(-c3cc4c(N5CCN(C(=O)OC6COC6)CC5)ccnn4c3)cc2)CC1 [Compound 629] | < 10 | < 100 |
| CC(C)N1CCC[C@H](c2ccc(-c3cc4c(N5CCN(C(=O)OC6COC6)CC5)ccnn4c3)cc2)C1 [Compound 630] | < 10 | < 100 |
| CC(C)N1CCC[C@@H](c2ccc(-c3cc4c(N5CCN(C(=O)OC6COC6)CC5)ccnn4c3)cc2)C1 [Compound 631, (S)-oxetan-3-yl 4-(6-(4-(1-isopropylpiperidin-3-yl)phenyl)pyrrolo[1,2-b]pyridazin-4-yl)piperazine-1-carboxylate] | < 10 | < 100 |
| CC(C)N1CCC(c2ccc(-c3cc4c(N5CCN(C(=O)OC(C)(C)C)CC5)ccnn4c3)cc2)CC1 [Compound 632] | < 10 | 100 to 500 |
| CC(C)NC(=O)N1CCN(c2ccnn3cc(-c4ccc([C@@]5(C)CN(C(C)C)CCN5)cc4)cc23)CC1 [Compound 633] | < 10 | < 100 |
| CC(C)NC(=O)N1CCN(c2ccnn3cc(-c4ccc([C@]5(C)CN(C(C)C)CCN5)cc4)cc23)CC1 [Compound 634] | < 10 | < 100 |
| CC(C)N1CCC[C@@H](c2ccc(-c3cc4c(N5CCN(C(=O)OC6COC6)CC5)ccnn4c3)nc2)C1 [Compound 635] | < 10 | < 100 |
| CC(C)N1CCC[C@H](c2ccc(-c3cc4c(N5CCN(C(=O)OC6COC6)CC5)ccnn4c3)nc2)C1 [Compound 636] | < 10 | < 100 |
| CO[C@]1(c2ccc(-c3cc4c(N5CCN(C(=O)NC(C)C)CC5)ccnn4c3)cc2)CCN(C(C)C)C1 [Compound 637] | < 10 | < 100 |
| CO[C@@]1(c2ccc(-c3cc4c(N5CCN(C(=O)NC(C)C)CC5)ccnn4c3)cc2)CCN(C(C)C)C1 [Compound 638] | < 10 | < 100 |
| CCOC(=O)N1CCN(c2ccnn3cc(-c4ccc([C@]5(C)CN(C(C)C)CCN5C)cc4)cc23)CC1 [Compound 641] | < 10 | < 100 |
| CCOC(=O)N1CCN(c2ccnn3cc(-c4ccc([C@@]5(C)CN(C(C)C)CCN5C)cc4)cc23)CC1 [Compound 642] | < 10 | < 100 |
